Format in all cases: functional
Experiment [1] concerns NB-1691. The experiment can be described thus: Synergistic cytotoxicity against human NB-1691 cells assessed as combination index at ED 50 measured after 72 hrs in presence of temozolomide by Cell-titer Glo reagent assay.
Experiment [2] relates to NB-1691. Put plainly: Synergistic cytotoxicity against human NB-1691 cells assessed as combination index at ED 50 measured after 72 hrs in presence of temozolomide and SN-38 by Cell-titer Glo reagent assay.
The test system of experiment [3] is SK-N-FI. Put plainly: Synergistic cytotoxicity against human SK-N-FI cells assessed as combination index at ED 50 measured after 72 hrs in presence of SN-38 and temozolomide by Cell-titer Glo reagent assay.
Experiment [4] is described as follows: Synergistic cytotoxicity against human NB-1771 cells assessed as combination index at ED 75 measured after 72 hrs in presence of concurrent treatment of […] inhibitor CI-1040 by Cell-titer Glo reagent assay.
The subject of experiment [5] is SK-N-FI. Put plainly: Synergistic cytotoxicity against human SK-N-FI cells assessed as combination index at ED 75 measured after 72 hrs in presence of concurrent treatment of […] inhibitor CI-1040 by Cell-titer Glo reagent assay.
The test system of a further experiment is NCI-H2030. Put plainly: Synergistic cytotoxicity against human NCI-H2030 cells expressing KRAS mutant assessed as combination index at ED 50 measured after 72 hrs in presence of MEK inhibitor GSK1120212 by Cell-titer Glo reagent assay.
The next experiment has as its system NCI-H1792. Put plainly: Synergistic cytotoxicity against human NCI-H1792 cells expressing KRAS mutant assessed as combination index at ED 50 measured after 72 hrs in presence of MEK inhibitor GSK1120212 by Cell-titer Glo reagent assay.
The next experiment relates to SW900. Put plainly: Synergistic cytotoxicity against human SW900 cells expressing KRAS mutant assessed as combination index at ED 50 measured after 72 hrs in presence of MEK inhibitor GSK1120212 by Cell-titer Glo reagent assay.
The subject of a further experiment is CAPAN-1. The experiment can be described thus: Synergistic cytotoxicity against human CAPAN-1 cells expressing KRAS mutant assessed as combination index at ED 50 measured after 72 hrs in presence of MEK inhibitor GSK1120212 by Cell-titer Glo reagent assay.
The test system of a further experiment is SW48. The experiment can be described thus: Synergistic cytotoxicity against human SW48 cells assessed as combination index at ED 50 measured after 72 hrs in presence of MEK inhibitor GSK1120212 by Cell-titer Glo reagent assay.
The subject of a further experiment is NCI-H460. The experiment can be described thus: Synergistic cytotoxicity against human NCI-H460 cells expressing KRAS mutant assessed as combination index at ED75 measured after 72 hrs in presence of MEK inhibitor GSK1120212 by Cell-titer Glo reagent assay.
The next experiment has as its system HPAF-II. Put plainly: Synergistic cytotoxicity against human HPAF-II cells expressing KRAS mutant assessed as combination index at ED75 measured after 72 hrs in presence of MEK inhibitor GSK1120212 by Cell-titer Glo reagent assay.

Consider `CC(C)Oc1ccc(C(=O)N[C@H](CNC(=O)CN(C)C)Cc2ccc(-c3cn4cccc([C@H](C)O)c4n3)cc2)cc1Cl` [GSK-923295A], for which the CI is given as 0.405 in the experiment with NB-1691 [1]; 0.049 with NB-1691 [2]; 0.67 in the experiment with SK-N-FI [3]; 0.118 in experiment [4]; 0.379 in the experiment on SK-N-FI [5]; 0.308 in the experiment on NCI-H2030. The CI with NCI-H1792 is recorded as 0.484; with SW900 it was 0.705; in the experiment on CAPAN-1 it was 0.053; in the experiment with SW48 it was 0.36; in the experiment with NCI-H460, 0.294; in the experiment on HPAF-II it was 0.473.

The values are drawn from ChEMBL document CHEMBL5647688, “Mitogen-activated protein kinase (MEK/ERK) inhibition sensitizes cancer cells to centromere-associated protein E inhibition” (Int J Cancer, 2013).
